Experimental findings from patent publication US11780901B2, “Analogues of parathyroid hormone (1-34) that function as agonists of the parathyroid hormone receptor-1 and display modified activity profiles” (Wisconsin Alumni Research Foundation, priority 2013, dated 2023) are described below.

This assay addresses T1, PTHR1 (Homo sapiens, UniProt Q03431).
T1 sequence (Q03431 27-593): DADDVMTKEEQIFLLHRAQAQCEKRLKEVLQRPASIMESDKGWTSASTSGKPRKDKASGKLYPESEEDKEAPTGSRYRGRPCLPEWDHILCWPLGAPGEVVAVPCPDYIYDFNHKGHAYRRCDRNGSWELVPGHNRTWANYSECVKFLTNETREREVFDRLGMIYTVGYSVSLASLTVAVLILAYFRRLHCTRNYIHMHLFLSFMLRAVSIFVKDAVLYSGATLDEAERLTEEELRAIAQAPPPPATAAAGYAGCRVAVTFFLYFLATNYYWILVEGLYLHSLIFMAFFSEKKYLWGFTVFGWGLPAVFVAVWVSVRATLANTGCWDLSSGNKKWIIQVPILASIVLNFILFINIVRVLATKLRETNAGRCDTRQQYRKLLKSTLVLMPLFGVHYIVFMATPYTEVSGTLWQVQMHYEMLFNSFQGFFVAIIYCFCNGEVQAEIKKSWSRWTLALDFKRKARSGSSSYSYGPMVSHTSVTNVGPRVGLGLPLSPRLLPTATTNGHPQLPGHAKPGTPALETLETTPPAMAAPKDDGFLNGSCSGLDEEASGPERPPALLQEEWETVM
In words: PTHR1 activation, cAMP production (GloSensor) in HEK293 cells. The assay is classed as cell-based. Also on record: expressed in transfected cells. The source says:
The assays employ HEK-293 cells that have been engineered to express the appropriate receptor. GloSensor-based detection of cAMP provides a read-out of receptor activation.
For PTHR1 activation and all the binding data, data represent mean±s.e.m from three independent measurements; For PTHR2 activation, data represent mean±s.e.m from four independent measurements. Curves were fit to the data using a four-parameter sigmoidal dose-response equation.
For cAMP dose-response assays, monolayers of confluent HEK 293 cells were pre-incubated with buffer containing d-luciferin (0.5 mM) in 96 well plates at room temperature until a stable baseline level of luminescence was established (30 min). Varying concentrations of agonist were then added, and the time course of luminescence response was recorded using a Perkin Elmer plate reader following α/β-peptide addition.
(Changes in cAMP serve as a functional read-out for many G protein-coupled receptors.)

Where two headings read alike, the source gives them in different places. Residues, ends and D or L forms follow the SMILES beside them. *: point of attachment. X11 = NC[C@H](CO)C(=O)*

By EC50 is commonly meant the concentration that produces a half-maximal response.

For the compound `CC[C@H](C)[C@H](NC(=O)[C@H](CCC(=O)O)NC(=O)[C@H](CO)NC(=O)[C@@H](NC(=O)[C@H](CN)CO)C(C)C)C(=O)N[C@@H](CCC(N)=O)C(=O)N[C@@H](CC(C)C)C(=O)N[C@@H](CCSC)C(=O)N[C@@H](Cc1c[nH]cn1)C(=O)N[C@@H](CC(N)=O)C(=O)N[C@@H](CC(C)C)C(=O)NCC(=O)N[C@@H](CCCCN)C(=O)N[C@@H](Cc1c[nH]cn1)C(=O)N[C@@H](CC(C)C)C(=O)N[C@@H](CC(N)=O)C(=O)N[C@@H](CO)C(=O)N[C@@H](CCSC)C(=O)N[C@@H](CCC(=O)O)C(=O)N[C@@H](CCCNC(=N)N)C(=O)N[C@H](C(=O)N[C@@H](CCC(=O)O)C(=O)N[C@@H](Cc1c[nH]c2ccccc12)C(=O)N[C@@H](CC(C)C)C(=O)N[C@@H](CCCNC(=N)N)C(=O)N[C@@H](CCCCN)C(=O)N[C@@H](CCCCN)C(=O)N[C@@H](CC(C)C)C(=O)N[C@@H](CCC(N)=O)C(=O)N[C@@H](CC(=O)O)C(=O)N[C@H](C(=O)N[C@@H](Cc1c[nH]cn1)C(=O)N[C@@H](CC(N)=O)C(=O)N[C@@H](Cc1ccccc1)C(N)=O)C(C)C)C(C)C` [SEQ. ID. NO: 30] (X11-VSEIQLMHNLGKHLNSMERVEWLRKKLQDVHNF-NH2), the EC50 (Table 8, hPTHR1, read-out: PTHR1 EC50) amounted to 1.55 ± 0.3 nM.

Regarding `CC[C@H](C)[C@@H](CC(=O)N[C@@H](CCC(N)=O)C(=O)N[C@@H](CC(C)C)C(=O)N[C@@H](CCSC)C(=O)N[C@@H](Cc1cnc[nH]1)C(=O)N[C@@H](CC(N)=O)C(=O)N[C@@H](CC(C)C)C(=O)NCC(=O)N[C@@H](CCCCN)C(=O)N[C@@H](Cc1cnc[nH]1)C(=O)N[C@@H](CC(C)C)C(=O)N[C@@H](CC(N)=O)C(=O)N[C@@H](CO)C(=O)N[C@@H](CCSC)C(=O)N[C@@H](CCC(=O)O)C(=O)N[C@@H](CCCNC(=N)N)C(=O)N[C@H](C(=O)N[C@@H](CCC(=O)O)C(=O)N[C@@H](Cc1c[nH]c2ccccc12)C(=O)N[C@@H](CC(C)C)C(=O)N[C@@H](CCCNC(=N)N)C(=O)N[C@@H](CCCCN)C(=O)N[C@@H](CCCCN)C(=O)N[C@@H](CC(C)C)C(=O)N[C@@H](CCC(N)=O)C(=O)N[C@@H](CC(=O)O)C(=O)N[C@H](C(=O)N[C@@H](Cc1cnc[nH]1)C(=O)N[C@@H](CC(N)=O)C(=O)N[C@@H](Cc1ccccc1)C(N)=O)C(C)C)C(C)C)NC(=O)[C@H](CCC(=O)O)NC(=O)[C@H](CO)NC(=O)[C@@H](NC(=O)[C@@H](N)CO)C(C)C` [SEQ. ID. NO: 42], the concentration for a half-maximal effect (EC50) (HEK-293 cells, GloSensor cAMP, read-out: EC50 (nM) of PTHR1 Activation) is 3.4 ± 1.22 nM.
